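Growth conditions: 96-well plates. Treatment: test compound, 48 hours, 5 concentrations. Analysis: linear interpolation between bracketing concentrations; unreached endpoints set to highest concentration. Abbreviation: GI50, concentration required for 50% inhibition of growth. The concentration for full growth arrest is given as TGI.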
Tests used:
Assay in all cases: DTP human tumour cell line panel, 48 h
SNB-19 CNS = system: SNB-19 CNS
NCI-H23 lung = system: NCI-H23 lung
NCI/ADR-RES ovarian = system: NCI/ADR-RES ovarian
OVCAR-8 ovarian = system: OVCAR-8 ovarian
HL-60(TB) leukemia = system: HL-60(TB) leukemia
A549 NSCLC = system: A549 NSCLC
MDA-MB-435 = system: MDA-MB-435
NCI-H226 lung = system: NCI-H226 lung
CAKI-1 renal = system: CAKI-1 renal
BT-549 breast = system: BT-549 breast
MCF7 breast = system: MCF7 breast
T-47D breast = system: T-47D breast
SN12C renal = system: SN12C renal
TK-10 renal = system: TK-10 renal
SNB-75 CNS = system: SNB-75 CNS
MOLT-4 leukemia = system: MOLT-4 leukemia
HCT-15 colon = system: HCT-15 colon
SK-MEL-2 melanoma = system: SK-MEL-2 melanoma
HCC-2998 colon = system: HCC-2998 colon
OVCAR-3 ovarian = system: OVCAR-3 ovarian
ACHN renal = system: ACHN renal
HOP-92 NSCLC = system: HOP-92 NSCLC
SF-539 CNS = system: SF-539 CNS
786-0 renal = system: 786-0 renal
HS 578T breast = system: HS 578T breast
SF-295 CNS = system: SF-295 CNS
RPMI-8226 leukemia = system: RPMI-8226 leukemia
MDA-MB-231 breast = system: MDA-MB-231 breast
U251 CNS = system: U251 CNS
NCI-H522 lung = system: NCI-H522 lung
SK-MEL-28 melanoma = system: SK-MEL-28 melanoma
CCRF-CEM leukemia = system: CCRF-CEM leukemia
COLO 205 colon = system: COLO 205 colon
HCT-116 colon = system: HCT-116 colon
KM12 colon = system: KM12 colon
OVCAR-5 ovarian = system: OVCAR-5 ovarian
DU-145 prostate = system: DU-145 prostate
NCI-H460 lung = system: NCI-H460 lung
UO-31 renal = system: UO-31 renal
PC-3 prostate = system: PC-3 prostate
UACC-257 melanoma = system: UACC-257 melanoma
UACC-62 melanoma = system: UACC-62 melanoma
MALME-3M melanoma = system: MALME-3M melanoma
SK-OV-3 ovarian = system: SK-OV-3 ovarian
OVCAR-4 ovarian = system: OVCAR-4 ovarian
SK-MEL-5 melanoma = system: SK-MEL-5 melanoma
K-562 leukemia = system: K-562 leukemia
SF-268 CNS = system: SF-268 CNS
M14 melanoma = system: M14 melanoma
A498 renal = system: A498 renal
HOP-62 NSCLC = system: HOP-62 NSCLC
SW-620 colon = system: SW-620 colon
IGROV1 ovarian = system: IGROV1 ovarian
HT29 colon = system: HT29 colon

COc1cc(/C=C/c2cc(/C=C/c3ccc(O)c(OC)c3)n(C(=O)c3ccc(Cl)cc3)n2)ccc1O
GI50 (SNB-19 CNS): 2.8 µM
TGI (SNB-19 CNS): 12.1 µM
GI50 (NCI-H23 lung): 2.35 µM
TGI (NCI-H23 lung): 7.95 µM
GI50 (NCI/ADR-RES ovarian): 2.9 µM
TGI (NCI/ADR-RES ovarian): 18 µM
GI50 (OVCAR-8 ovarian): 2.8 µM
TGI (OVCAR-8 ovarian): 8.14 µM
GI50 (HL-60(TB) leukemia): 1.58 µM
TGI (HL-60(TB) leukemia): 7.62 µM
GI50 (A549 NSCLC): 3.3 µM
TGI (A549 NSCLC): 12.8 µM
GI50 (MDA-MB-435): 0.449 µM
TGI (MDA-MB-435): 10.7 µM
GI50 (NCI-H226 lung): 3.51 µM
TGI (NCI-H226 lung): 23.2 µM
GI50 (CAKI-1 renal): 2.97 µM
TGI (CAKI-1 renal): 15 µM
GI50 (BT-549 breast): 1.83 µM
TGI (BT-549 breast): 8.32 µM
GI50 (MCF7 breast): 2.43 µM
TGI (MCF7 breast): 16 µM
GI50 (T-47D breast): 1.92 µM
TGI (T-47D breast): 5.86 µM
GI50 (SN12C renal): 2.35 µM
TGI (SN12C renal): 13 µM
GI50 (TK-10 renal): 4.2 µM
TGI (TK-10 renal): 14.7 µM
GI50 (SNB-75 CNS): 1.99 µM
TGI (SNB-75 CNS): 10.3 µM
GI50 (MOLT-4 leukemia): 1.64 µM
TGI (MOLT-4 leukemia): 11.9 µM
GI50 (HCT-15 colon): 1.54 µM
TGI (HCT-15 colon): 26.1 µM
GI50 (SK-MEL-2 melanoma): 1.92 µM
TGI (SK-MEL-2 melanoma): 5.85 µM
GI50 (HCC-2998 colon): 3.94 µM
TGI (HCC-2998 colon): 12.8 µM
GI50 (OVCAR-3 ovarian): 2.67 µM
TGI (OVCAR-3 ovarian): 7.72 µM
GI50 (ACHN renal): 1.03 µM
TGI (ACHN renal): 13.7 µM
GI50 (HOP-92 NSCLC): 3.97 µM
TGI (HOP-92 NSCLC): 22.2 µM
GI50 (SF-539 CNS): 1.24 µM
TGI (SF-539 CNS): 6.07 µM
GI50 (786-0 renal): 2.55 µM
TGI (786-0 renal): 16.2 µM
GI50 (HS 578T breast): 3.23 µM
TGI (HS 578T breast): > 100 µM
GI50 (SF-295 CNS): 3.13 µM
TGI (SF-295 CNS): 12.4 µM
GI50 (RPMI-8226 leukemia): 1.83 µM
TGI (RPMI-8226 leukemia): 6.33 µM
GI50 (MDA-MB-231 breast): 2.84 µM
TGI (MDA-MB-231 breast): 19.6 µM
GI50 (U251 CNS): 2.94 µM
TGI (U251 CNS): 11.6 µM
GI50 (NCI-H522 lung): 0.595 µM
TGI (NCI-H522 lung): 4.32 µM
GI50 (SK-MEL-28 melanoma): 2.49 µM
TGI (SK-MEL-28 melanoma): 12.2 µM
GI50 (CCRF-CEM leukemia): 1.64 µM
TGI (CCRF-CEM leukemia): > 100 µM
GI50 (COLO 205 colon): 3.78 µM
TGI (COLO 205 colon): 13.4 µM
GI50 (HCT-116 colon): 2.15 µM
TGI (HCT-116 colon): 47.9 µM
GI50 (KM12 colon): 1.24 µM
TGI (KM12 colon): 14.4 µM
GI50 (OVCAR-5 ovarian): 3.66 µM
TGI (OVCAR-5 ovarian): 18.2 µM
GI50 (DU-145 prostate): 3.03 µM
TGI (DU-145 prostate): 13.9 µM
GI50 (NCI-H460 lung): 2.03 µM
TGI (NCI-H460 lung): 20.4 µM
GI50 (UO-31 renal): 1.39 µM
TGI (UO-31 renal): 10.1 µM
GI50 (PC-3 prostate): 2.66 µM
TGI (PC-3 prostate): 15.5 µM
GI50 (UACC-257 melanoma): 3.79 µM
TGI (UACC-257 melanoma): 13.2 µM
GI50 (UACC-62 melanoma): 2.72 µM
TGI (UACC-62 melanoma): 10.1 µM
GI50 (MALME-3M melanoma): 1.31 µM
TGI (MALME-3M melanoma): 10.1 µM
GI50 (SK-OV-3 ovarian): 1.83 µM
TGI (SK-OV-3 ovarian): 4.35 µM
GI50 (OVCAR-4 ovarian): 2.02 µM
TGI (OVCAR-4 ovarian): 34.9 µM
GI50 (SK-MEL-5 melanoma): 2.27 µM
TGI (SK-MEL-5 melanoma): 11.6 µM
GI50 (K-562 leukemia): 0.807 µM
TGI (K-562 leukemia): 16.4 µM
GI50 (SF-268 CNS): 2.65 µM
TGI (SF-268 CNS): 13.6 µM
GI50 (M14 melanoma): 1.5 µM
TGI (M14 melanoma): 15.2 µM
GI50 (A498 renal): 2.71 µM
TGI (A498 renal): 9.6 µM
GI50 (HOP-62 NSCLC): 2.08 µM
TGI (HOP-62 NSCLC): 6.92 µM
GI50 (SW-620 colon): 3.12 µM
TGI (SW-620 colon): 13.8 µM
GI50 (IGROV1 ovarian): 3.17 µM
TGI (IGROV1 ovarian): 15.4 µM
GI50 (HT29 colon): 3.42 µM
TGI (HT29 colon): > 100 µM
